Experimental findings from ChEMBL document CHEMBL5608239, “Structure, Function, and Activity of Small Molecule and Peptide Inhibitors of Protein Arginine Methyltransferase 1” (J Med Chem, 2024) are described below.

SMILES strings stand for the structures. pIC50: −log10 of the molar value. Numbered stars: 1 amine (or outer) side, 2 acyl side, 3 side chain; on linkers, the order of the positions; unused ones are H or OH. Square brackets hold non-standard residues; d marks the D form. Peptide text beside a SMILES is read from it. X1 = N=C(NCCC[C@H](N[*:1])C(=O)[*:2])NCCC[C@H]1O[C@@H](n2cnc3c(N)ncnc32)[C@H](O)[C@@H]1O

Experiment [1] addresses T1, Protein arginine N-methyltransferase 1 (Homo sapiens, UniProt Q99873).
The target of experiment [2] is T1, Protein arginine N-methyltransferase 1. Briefly: Inhibition of PRMT1 (unknown origin) using Histone H4 as substrate incubated for 1 hr by fluorescence based analysis.
For experiment [3] the target is unchanged. Briefly: Inhibition of human PRMT1 using [3H]methylated biotin-labeled peptide as substrate by scintillation proximity assay.
For experiment [4] the target is unchanged. Briefly: Inhibition of 6His-tagged human recombinant PRMT1 using Histone H4 as substrate.

T1 sequence (Q99873 whole entry): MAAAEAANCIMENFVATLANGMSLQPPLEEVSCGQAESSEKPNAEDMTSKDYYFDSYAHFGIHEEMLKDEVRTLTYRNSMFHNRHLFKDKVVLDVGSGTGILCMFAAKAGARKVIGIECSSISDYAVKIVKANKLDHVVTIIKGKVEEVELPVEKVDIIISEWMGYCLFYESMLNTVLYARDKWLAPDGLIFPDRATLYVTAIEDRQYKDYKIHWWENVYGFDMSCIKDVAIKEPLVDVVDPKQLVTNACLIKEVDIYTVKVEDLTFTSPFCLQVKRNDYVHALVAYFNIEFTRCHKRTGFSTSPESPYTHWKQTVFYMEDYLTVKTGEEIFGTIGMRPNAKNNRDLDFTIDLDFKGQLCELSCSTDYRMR

Regarding `N=C(NCCCCC(N)C(N)=O)NCCCSC[C@H]1O[C@@H](n2cnc3c(N)ncnc32)[C@H](O)[C@@H]1O` (some centres undefined), the pIC50 in experiment [1] and in experiment [2] was 5.52 each time.

Consider `CC(=O)N[C@@H](CO)C(=O)NCC(=O)N[C@@H](CCCNC(=N)NCCC[C@H]1O[C@@H](n2cnc3c(N)ncnc32)[C@H](O)[C@@H]1O)C(=O)NCC(=O)N[C@@H](CCCCN)C(=O)NCC(=O)NCC(=O)N[C@@H](CCCCN)C(N)=O` (Ac-SG[X1]GKGGK-NH2), for which the pIC50 in experiment [3] is 5.88.

As for `C[C@@H](O)[C@H](NC(=O)CNC(=O)CNC(=O)[C@H](CCCNC(=N)NCCC[C@H](N)C(=O)O)NC(=O)[C@H](CO)NC(=O)[C@@H](NC(=O)CNC(=O)CNC(=O)[C@@H](N)Cc1c[nH]c2ccccc12)[C@@H](C)O)C(=O)NCC(=O)NCC(=O)N[C@@H](Cc1c[nH]c2ccccc12)C(=O)O`, in experiment [4], the pIC50 is under 3.30.

What is called pIC50 is the negative decadic logarithm of the IC50, by convention in mol/L.
